Holding throughout (type): cell-based
Assay [1] has as its target T1, human TLR9 (Homo sapiens, UniProt Q9NR96).
T1 construct: host or cells: HEK-Blue cells (HEK293-derived reporter line)
T1 sequence (Q9NR96 26-1032): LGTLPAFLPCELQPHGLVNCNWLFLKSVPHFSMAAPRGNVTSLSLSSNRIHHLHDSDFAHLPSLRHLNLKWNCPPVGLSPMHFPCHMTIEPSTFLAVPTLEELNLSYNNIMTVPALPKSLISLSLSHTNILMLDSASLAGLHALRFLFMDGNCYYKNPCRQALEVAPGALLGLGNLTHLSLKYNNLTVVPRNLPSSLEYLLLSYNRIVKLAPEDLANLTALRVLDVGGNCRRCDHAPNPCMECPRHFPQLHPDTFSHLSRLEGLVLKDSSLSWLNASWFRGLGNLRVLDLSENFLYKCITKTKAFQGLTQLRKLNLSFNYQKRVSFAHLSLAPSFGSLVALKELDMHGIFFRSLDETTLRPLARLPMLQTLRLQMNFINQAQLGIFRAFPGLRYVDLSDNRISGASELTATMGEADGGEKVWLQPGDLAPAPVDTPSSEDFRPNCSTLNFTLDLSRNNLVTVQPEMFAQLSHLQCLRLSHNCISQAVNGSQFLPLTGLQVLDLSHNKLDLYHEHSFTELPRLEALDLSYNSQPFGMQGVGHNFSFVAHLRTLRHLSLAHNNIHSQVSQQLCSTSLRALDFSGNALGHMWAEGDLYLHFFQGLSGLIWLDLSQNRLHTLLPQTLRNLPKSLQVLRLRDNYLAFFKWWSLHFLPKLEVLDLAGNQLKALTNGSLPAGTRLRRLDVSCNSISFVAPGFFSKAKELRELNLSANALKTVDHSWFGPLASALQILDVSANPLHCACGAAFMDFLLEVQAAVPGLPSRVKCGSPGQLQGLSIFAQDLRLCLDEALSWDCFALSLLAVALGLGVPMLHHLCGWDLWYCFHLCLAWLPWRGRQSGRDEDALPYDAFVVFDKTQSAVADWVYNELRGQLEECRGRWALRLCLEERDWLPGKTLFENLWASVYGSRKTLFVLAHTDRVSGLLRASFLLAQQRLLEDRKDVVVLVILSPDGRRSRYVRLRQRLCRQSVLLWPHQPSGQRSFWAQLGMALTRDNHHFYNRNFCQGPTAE
Kind of assay: TLR9 inhibition reporter assay (HEK-Blue cells, SEAP reporter, ODN2006 stimulation). Conditions: HEK-Blue cells overexpressing human TLR9, SEAP reporter, ODN2006 5 nM. In outline:
(§1)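 Agonists (final): TLR7 gardiquimod 7.5 μM; TLR8 R848 15.9 μM; TLR9 ODN2006 5 nM. HEK-Blue reporter cells, 30 min RT compound pre-incubation, 0.05 nM–50 μM dose range, 22 h at 37 °C, colorimetric SEAP detection medium. % inhibition relative to agonist+DMSO and known-inhibitor wells.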

The target of assay [2] is T2, human TLR8 (Homo sapiens, UniProt Q9NR97).
T2 construct: host or cells: HEK-Blue cells (HEK293-derived reporter line)
T2 sequence (Q9NR97 27-1041): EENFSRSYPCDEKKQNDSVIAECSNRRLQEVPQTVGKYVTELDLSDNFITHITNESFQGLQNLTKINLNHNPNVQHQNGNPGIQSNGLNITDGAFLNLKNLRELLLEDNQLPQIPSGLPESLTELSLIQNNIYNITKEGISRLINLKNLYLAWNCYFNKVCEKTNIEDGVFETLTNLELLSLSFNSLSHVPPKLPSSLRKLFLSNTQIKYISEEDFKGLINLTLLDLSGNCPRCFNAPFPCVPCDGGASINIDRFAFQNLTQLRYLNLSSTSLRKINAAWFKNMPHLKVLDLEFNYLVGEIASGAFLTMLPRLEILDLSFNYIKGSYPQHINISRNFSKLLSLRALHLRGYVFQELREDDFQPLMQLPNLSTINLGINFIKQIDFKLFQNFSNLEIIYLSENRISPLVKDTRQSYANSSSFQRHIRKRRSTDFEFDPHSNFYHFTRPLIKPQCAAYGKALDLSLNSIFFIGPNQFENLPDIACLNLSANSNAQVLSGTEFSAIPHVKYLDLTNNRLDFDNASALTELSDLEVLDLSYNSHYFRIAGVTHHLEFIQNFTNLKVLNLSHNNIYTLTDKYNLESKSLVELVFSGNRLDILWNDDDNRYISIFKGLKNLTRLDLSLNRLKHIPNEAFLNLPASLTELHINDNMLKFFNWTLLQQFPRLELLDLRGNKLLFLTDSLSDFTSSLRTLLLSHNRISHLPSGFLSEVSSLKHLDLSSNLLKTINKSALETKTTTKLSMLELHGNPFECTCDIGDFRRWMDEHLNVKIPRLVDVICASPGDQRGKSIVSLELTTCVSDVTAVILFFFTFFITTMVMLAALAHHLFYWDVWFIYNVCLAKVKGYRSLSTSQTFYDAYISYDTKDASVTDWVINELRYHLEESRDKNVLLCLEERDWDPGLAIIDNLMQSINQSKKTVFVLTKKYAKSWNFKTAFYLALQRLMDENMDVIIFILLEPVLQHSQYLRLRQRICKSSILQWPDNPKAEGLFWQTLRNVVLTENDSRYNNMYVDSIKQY
Nature of the assay: TLR8 inhibition reporter assay (HEK-Blue cells, SEAP reporter, R848 stimulation). Conditions: HEK-Blue cells overexpressing human TLR8, SEAP reporter, R848 15.9 μM. In outline: as §1
(Reporter assays use an easily measured gene product as a stand-in for the process of interest.)

The target in assay [3] is T3, human TLR7 (Homo sapiens, UniProt Q9NYK1).
T3 construct: host or cells: HEK-Blue cells (HEK293-derived reporter line)
T3 sequence (Q9NYK1 27-1049): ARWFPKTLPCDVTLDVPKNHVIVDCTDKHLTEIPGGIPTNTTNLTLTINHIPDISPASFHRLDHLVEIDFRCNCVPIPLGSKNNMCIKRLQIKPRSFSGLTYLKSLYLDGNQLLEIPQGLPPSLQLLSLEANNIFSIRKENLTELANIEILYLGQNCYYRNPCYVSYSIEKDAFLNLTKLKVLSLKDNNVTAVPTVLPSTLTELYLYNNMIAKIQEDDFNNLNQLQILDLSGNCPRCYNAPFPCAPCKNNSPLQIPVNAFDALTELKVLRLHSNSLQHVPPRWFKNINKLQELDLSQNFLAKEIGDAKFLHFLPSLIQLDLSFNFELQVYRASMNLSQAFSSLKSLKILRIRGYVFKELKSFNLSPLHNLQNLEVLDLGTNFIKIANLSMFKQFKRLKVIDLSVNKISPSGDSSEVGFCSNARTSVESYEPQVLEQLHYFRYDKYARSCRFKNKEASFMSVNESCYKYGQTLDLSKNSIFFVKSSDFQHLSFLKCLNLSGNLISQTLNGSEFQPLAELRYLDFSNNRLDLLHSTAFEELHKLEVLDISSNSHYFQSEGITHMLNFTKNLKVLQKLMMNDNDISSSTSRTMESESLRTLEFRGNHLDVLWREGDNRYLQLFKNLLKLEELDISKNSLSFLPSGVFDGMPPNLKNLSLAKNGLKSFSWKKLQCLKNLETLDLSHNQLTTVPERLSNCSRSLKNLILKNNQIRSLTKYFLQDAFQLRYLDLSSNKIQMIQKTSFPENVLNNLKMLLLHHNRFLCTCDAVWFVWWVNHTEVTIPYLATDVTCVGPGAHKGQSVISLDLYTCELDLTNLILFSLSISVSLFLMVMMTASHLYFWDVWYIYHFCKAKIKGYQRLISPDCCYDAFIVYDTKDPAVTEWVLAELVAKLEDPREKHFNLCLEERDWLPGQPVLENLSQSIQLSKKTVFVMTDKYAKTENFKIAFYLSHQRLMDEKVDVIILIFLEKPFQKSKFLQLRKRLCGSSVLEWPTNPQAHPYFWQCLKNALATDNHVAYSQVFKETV
Kind of assay: TLR7 inhibition reporter assay (HEK-Blue cells, SEAP reporter, gardiquimod stimulation). Conditions: HEK-Blue cells overexpressing human TLR7, SEAP reporter, gardiquimod 7.5 μM. In a few lines:
as §1

Each structure is given as a SMILES string. Bounds are passed on as bounds.

For 13 compounds, IC50 results are on record in patent US11739098B2 (BRISTOL-MYERS SQUIBB COMPANY, priority 2017, dated 2023).

A word on the IC50: it is the midpoint of a concentration-inhibition curve. On to `CCc1c(-c2ccnc3[nH]ncc23)[nH]c2ccc(C3CCNCC3F)cc12` (stereo not drawn) [Example 177, 4-(3-ethyl-5-(3-fluoropiperidin-4-yl)-1H-indol-2-yl)-1H-pyrazolo[3,4-b]pyridine], for which the IC50 in assay [1] is 1000 to 50000 nM; in assay [2], under 100 nM; in assay [3], under 100 nM.
With `CNCCN1CCC(c2ccc3[nH]c(-c4ccc5c(c4)OCO5)c(C)c3c2)CC1` [Example 670, 2-(4-(2-(benzo[d][1,3]dioxol-5-yl)-3-methyl-1H-indol-5-yl)piperidin-1-yl)-N-methylethan-1-amine], the IC50 in assay [1] fell in the range of 1000 to 50000 nM; in assay [2] it was 100 to 1000 nM; in assay [3], 100 to 1000 nM.
With `CNC(=O)CN1CCC(c2ccc3[nH]c(-c4cc(CC(C)C)n5nc(C)cc5c4)c(C(C)C)c3c2)CC1` [Example 392, 2-(4-(2-(7-isobutyl-2-methylpyrazolo[1,5-a]pyridin-5-yl)-3-isopropyl-1H-indol-5-yl)piperidin-1-yl)-N-methylacetamide], the values for the IC50 in assay [1], in assay [2] and in assay [3] were 1000 to 50000 nM, over 3130 nM and over 3130 nM, respectively.
On to `Cc1cc(-c2[nH]c3ccc(C4CCN(CC(=O)N(C)C)CC4)cc3c2C(C)C)cc2cn(C)nc12` [Example 379, 2-(4-(2-(2,7-dimethyl-2H-indazol-5-yl)-3-isopropyl-1H-indol-5-yl)piperidin-1-yl)-N,N-dimethylacetamide], for which the IC50 in assay [1] was 1000 to 50000 nM; in assay [2], under 100 nM; in assay [3], under 100 nM.
As to `Cc1nn2ccc(-c3[nH]c4ccc(C5CCNCC5)cc4c3C(C)C)cc2c1F` [Example 146, 3-fluoro-5-(3-isopropyl-5-(piperidin-4-yl)-1H-indol-2-yl)-2-methylpyrazolo[1,5-a]pyridine], the IC50 was over 50000 nM in assay [1], 100 to 1000 nM in assay [2] and under 100 nM in assay [3].
The corresponding values for `Cc1c(-c2[nH]c3ccc(C4CCNCC4)cc3c2C(C)C)c2cccnc2n1C` [Example 37, 3-(3-isopropyl-5-(piperidin-4-yl)-1H-indol-2-yl)-1,2-dimethyl-1H-pyrrolo[2,3-b]pyridine] are 1000 to 50000 nM, under 100 nM and under 100 nM.
As for `Cc1cc(-c2[nH]c3ccc(C4CCNCC4)cc3c2C(C)C)cn2cc(C(=O)N(C)C)nc12` [Example 265, 6-(3-isopropyl-5-(piperidin-4-yl)-1H-indol-2-yl)-N,N,8-trimethylimidazo[1,2-a]pyridine-2-carboxamide], the IC50 in assay [1] was 1000 to 50000 nM; in assay [2], under 100 nM; in assay [3] it was under 100 nM.
`CC(C)c1c(-c2ccnc3[nH]ncc23)[nH]c2ccc(C3CCN(C(=O)c4cc[nH]n4)CC3)cc12` [Example 615, (4-(3-isopropyl-2-(1H-pyrazolo[3,4-b]pyridin-4-yl)-1H-indol-5-yl)piperidin-1-yl)(1H-pyrazol-3-yl)methanone]: the IC50 in assay [1] lay within 1000 to 50000 nM; in assay [2] it was 100 to 1000 nM; in assay [3], 100 to 1000 nM.
Consider `CC(C)c1c(-c2ccn3nncc3c2)[nH]c2ccc(C3CCN(C4COC4)CC3)cc12` [Example 735, 5-(3-isopropyl-5-(1-(oxetan-3-yl)piperidin-4-yl)-1H-indol-2-yl)-[1,2,3]triazolo[1,5-a]pyridine], for which the IC50 in assay [1] was 1000 to 50000 nM; in assay [2], 100 to 1000 nM; in assay [3] it was under 100 nM.
Turning to `CC(C)c1c(-c2ccc3[nH]nnc3c2)[nH]c2ccc(C3CCNCC3)cc12` [Example 51, 5-(3-isopropyl-5-(piperidin-4-yl)-1H-indol-2-yl)-1H-benzo[d][1,2,3]triazole], the IC50 is 100 to 1000 nM in assay [1], under 100 nM in assay [2] and under 100 nM in assay [3].
With `CCN(C)CC(=O)N1CCC(c2ccc3[nH]c(-c4cc(C)c5nnnn5c4)c(C(C)C)c3c2)CC1` [Example 475, 2-(ethyl(methyl)amino)-1-(4-(3-isopropyl-2-(8-methyltetrazolo[1,5-a]pyridin-6-yl)-1H-indol-5-yl)piperidin-1-yl)ethan-1-one], the IC50 in assay [1] was 1000 to 50000 nM; in assay [2], under 100 nM; in assay [3], under 100 nM.
As for `Cc1cnc2ccc(-c3[nH]c4ccc(C5CCN(C(=O)CN(C)C)CC5)cc4c3C(C)C)cn12` [Example 522, 2-(dimethylamino)-1-(4-(3-isopropyl-2-(3-methylimidazo[1,2-a]pyridin-6-yl)-1H-indol-5-yl)piperidin-1-yl)ethan-1-one], the IC50 in assay [1], in assay [2] and in assay [3] was 100 to 1000 nM in each case.
With `CN(C)C(=O)CN1CCC(c2ccc3[nH]c(-c4ccn5ccnc5c4)c(CC(F)F)c3c2)CC1` [Example 445, 2-(4-(3-(2,2-difluoroethyl)-2-(imidazo[1,2-a]pyridin-7-yl)-1H-indol-5-yl)piperidin-1-yl)-N,N-dimethylacetamide], the IC50 in assay [1] was 1000 to 50000 nM; in assay [2] it was 100 to 1000 nM; in assay [3], under 100 nM.
